Results reported in publication PMC8253220, “Molecular design, synthesis and in vitro biological evaluation of thienopyrimidine–hydroxamic acids as chimeric kinase HDAC inhibitors: a challenging approach to combat cancer” (Journal of Enzyme Inhibition and Medicinal Chemistry, 2021).
Several values for one entry are separate records, joined by “and”; a condition that tells them apart may be missing. Equal entries are not always repeated.

Tests used:
Test in all cases: NCI one-dose screen
Format in all cases: cell-based, human
TK-10 = details: Renal TK-10, 10 µM single dose
Method in brief: (§1)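 At 10 μM, a single concentration, compounds were evaluated for antiproliferative effect in the NCI 60-line screen, with growth expressed relative to untreated control cells.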

HS 578T = details: Breast HS 578T, 10 µM single dose
Method in brief: as §1

A549/ATCC = details: NSCLC A549/ATCC, 10 µM single dose
Method in brief: as §1

SF-268 = details: CNS SF-268, 10 µM single dose
Method in brief: (§2)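 Following the standard NCI-60 protocol, compounds were applied once at 10 μM to all 60 cancer lines. Read-out is percent growth versus untreated controls, expressed as inhibition %.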

EKVX = details: NSCLC EKVX, 10 µM single dose
Method in brief: as §1

SF-539 = details: CNS SF-539, 10 µM single dose
Method in brief: as §2

M14 = details: Melanoma M14, 10 µM single dose
Method in brief: as §1

SN12C = details: Renal SN12C, 10 µM single dose
Method in brief: as §1

NCI-H522 = details: NSCLC NCI-H522, 10 µM single dose
Method in brief: as §1

RXF 393 = details: Renal RXF 393, 10 µM single dose
Method in brief: as §1

SNB-19 = details: CNS SNB-19, 10 µM single dose
Method in brief: as §1

SW-620 = details: Colon SW-620, 10 µM single dose
Method in brief: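 One concentration (10 μM) applied to each line of the full NCI-60 panel; percent growth compared against untreated cells.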

SR = details: Leukemia SR, 10 µM single dose
Method in brief: as §1

SK-MEL-5 = details: Melanoma SK-MEL-5, 10 µM single dose
Method in brief: as §1

COLO 205 = details: Colon COLO 205, 10 µM single dose
Method in brief: as §1

MDA-MB-435 = details: Melanoma MDA-MB-435, 10 µM single dose
Method in brief: as §1

HOP-62 = details: NSCLC HOP-62, 10 µM single dose
Method in brief: as §1

OVCAR-5 = details: Ovarian OVCAR-5, 10 µM single dose
Method in brief: as §1

HCT-116 = details: Colon HCT-116, 10 µM single dose
Method in brief: as §1

LOX IMVI = details: Melanoma LOX IMVI, 10 µM single dose
Method in brief: as §1

CAKI-1 = details: Renal CAKI-1, 10 µM single dose
Method in brief: as §1

CCRF-CEM = details: Leukemia CCRF-CEM, 10 µM single dose
Method in brief: as §1

UO-31 = details: Renal UO-31, 10 µM single dose
Method in brief: as §1

HT29 = details: Colon HT29, 10 µM single dose
Method in brief: as §1

SK-MEL-2 = details: Melanoma SK-MEL-2, 10 µM single dose
Method in brief: as §1

MALME-3M = details: Melanoma MALME-3M, 10 µM single dose
Method in brief: as §1

HCC-2998 = details: Colon HCC-2998, 10 µM single dose
Method in brief: as §1

SNB-75 = details: CNS SNB-75, 10 µM single dose
Method in brief: as §1

NCI-H226 = details: NSCLC NCI-H226, 10 µM single dose
Method in brief: as §1

IGROV1 = details: Ovarian IGROV1, 10 µM single dose
Method in brief: as §1

SK-OV-3 = details: Ovarian SK-OV-3, 10 µM single dose
Method in brief: as §1

RPMI-8226 = details: Leukemia RPMI-8226, 10 µM single dose
Method in brief: as §1

HL-60(TB) = details: Leukemia HL-60(TB), 10 µM single dose
Method in brief: as §1

NCI-H322M = details: NSCLC NCI-H322M, 10 µM single dose
Method in brief: as §1

786-0 = details: Renal 786-0, 10 µM single dose
Method in brief: as §1

DU-145 = details: Prostate DU-145, 10 µM single dose
Method in brief: as §1

OVCAR-4 = details: Ovarian OVCAR-4, 10 µM single dose
Method in brief: as §1

| Structure (SMILES) | Growth Percent (TK-10) | Growth Percent (HS 578T) | Growth Percent (A549/ATCC) | Growth Percent (SF-268) | Growth Percent (EKVX) | Growth Percent (SF-539) | Growth Percent (M14) | Growth Percent (SN12C) | Growth Percent (NCI-H522) | Growth Percent (RXF 393) | Growth Percent (SNB-19) | Growth Percent (SW-620) | Growth Percent (SR) | Growth Percent (SK-MEL-5) | Growth Percent (COLO 205) | Growth Percent (MDA-MB-435) | Growth Percent (HOP-62) | Growth Percent (OVCAR-5) | Growth Percent (HCT-116) | Growth Percent (LOX IMVI) | other results |
| --- | --- | --- | --- | --- | --- | --- | --- | --- | --- | --- | --- | --- | --- | --- | --- | --- | --- | --- | --- | --- | --- |
| Cc1c(C(=O)NCCC(=O)NO)sc2ncnc(Nc3ccccc3)c12 [Compound 19b, N-(3-(hydroxyamino)-3-oxopropyl)-5-methyl-4-(phenylamino)thieno[2,3-d]pyrimidine-6-carboxamide] | 108.2% and 108.29% | 103.8% and 103.85% | 98.3% | 97.0% | 87.3% and 87.34% | 93.6% and 93.63% | 106.1% and 106.19% | 98.5% and 98.51% | 90.5% and 90.58% | 94.1% and 94.17% | 99.8% and 99.82% | 99.6% and 99.64% | 104.5% and 104.58% | 94.4% and 94.42% | 110.7% and 110.74% | 102.9% and 102.98% | 100.4% and 100.46% | 102.0% and 102.09% | 105.6% and 105.69% | 93.7% | Growth Percent (CAKI-1): 96.2% and 96.21%; Growth Percent (CCRF-CEM): 101.13%; Growth Percent (UO-31): 86.4% and 86.41%; Growth Percent (HT29): 104.9% and 104.96%; Growth Percent (SK-MEL-2): 108.6% and 108.65%; Growth Percent (MALME-3M): 102.5% and 102.54%; Growth Percent (HCC-2998): 97.7%; Growth Percent (SNB-75): 81.4% and 81.46%; Growth Percent (NCI-H226): 89.4% and 89.44%; Growth Percent (IGROV1): 101.8% and 101.82%; Growth Percent (SK-OV-3): 122.0% and 122.03%; Growth Percent (RPMI-8226): 103.3% and 103.33%; Growth Percent (HL-60(TB)): 103.7%; Growth Percent (NCI-H322M): 99.0% and 99.06%; Growth Percent (786-0): 102.5% and 102.58%; Growth Percent (DU-145): 108.0% and 108.08%; Growth Percent (OVCAR-4): 104.9% and 104.94% |
| Cc1c(C(=O)NCCC(=O)NO)sc2ncnc(Nc3ccc(Cl)cc3)c12 [Compound 19c, 4–(4-chlorophenylamino)-N-(3-(hydroxyamino)-3-oxopropyl)-5-methylthieno[2,3-d]pyrimidine-6-carboxamide] | 115.9% and 115.96% | 105.8% and 105.84% | 107.5% and 107.54% | 97.6% and 97.68% | 98.4% and 98.49% | 99.0% | 107.9% and 107.96% | 101.7% and 101.77% | 90.0% and 90.06% | 109.2% and 109.21% | 103.7% and 103.73% | 102.5% and 102.53% | 101.3% and 101.35% | 102.4% and 102.44% | 115.7% and 115.76% | 102.9% and 102.91% | 105.8% and 105.87% | 110.3% and 110.34% | 102.1% and 102.16% | 98.8% and 98.82% | Growth Percent (CAKI-1): 90.4% and 90.48%; Growth Percent (CCRF-CEM): 104.7% and 104.72%; Growth Percent (UO-31): 79.9% and 79.99%; Growth Percent (HT29): 102.2% and 102.22%; Growth Percent (SK-MEL-2): 101.8% and 101.81%; Growth Percent (MALME-3M): 104.5% and 104.57%; Growth Percent (HCC-2998): 105.3% and 105.39%; Growth Percent (SNB-75): 91.7% and 91.75%; Growth Percent (NCI-H226): 106.8% and 106.83%; Growth Percent (IGROV1): 105.4% and 105.45%; Growth Percent (SK-OV-3): 120.6% and 120.62%; Growth Percent (RPMI-8226): 105.4% and 105.48%; Growth Percent (HL-60(TB)): 104.5% and 104.56%; Growth Percent (NCI-H322M): 105.7% and 105.79%; Growth Percent (786-0): 104.9% and 104.99%; Growth Percent (DU-145): 114.2%; Growth Percent (OVCAR-4): 112.3% and 112.39% |
